Patent publication US10213527B2, “Functionalized titanium binding peptides and implants coated with same” (Ben-Gurion University of the Negev Research and Development …, priority 2012, dated 2019)
Entries after “also recorded” stand apart in the source; their conditions may differ. Values belong to the compound of their own block, whether it stands above or below them. Non-standard residues stand in square brackets, D forms with d. Residues, ends and D or L forms follow the SMILES beside them. No end group written: not given here. pS = N[C@@H](COP(=O)(O)O)C(=O)O

Experiments:
[1] = Adsorption of sodium phenyl phosphate dibasic to TiO2 microparticles (solution depletion); type: binding; set-up: Difference in concentration of the solution between the initial and the final one: unit: mg/ml; conditions: TiO2 microparticles 1.8 mg/ml, TBS
Protocol: Several solutions of sodium phenyl phosphate dibasic with different concentrations, dissolved in the same TBS, were allowed to adsorb to TiO2 microparticles (1.8 mg/ml in 1 ml). Table 6, herein below lists the initial concentrations and the difference in concentration of the solution between the initial and the one following adsorption. According to Table 6, the phenyl phosphate adsorbs only at concentrations lower than 0.25 mg/ml probably because at higher concentrations the compound undergoes some aggregation and stays only in the solution. This adsorption behavior is unusual and therefore no binding affinity constants were determined.

[2] = Calcium-phosphate adsorption on peptide coated TiO2 surfaces (XPS); conditions: Ca—P solution 24 h at 37° C.; FIG. 17B
Protocol: Surfaces were incubated in TBS solution for 45 min in room temperature, and then the surfaces were incubated in 0.4 mg ml^−1 peptide-TBS 10 mM solution for 1 hr at room temperature and were dried with nitrogen. Peptide coating were analyzed by XPS.
The ability to absorb calcium-phosphate (Ca—P) ions by the different peptide coatings were measured using Ca—P solution. The solution was prepared at physiological pH and contained K2HPO4 (1.0 mM), CaCl2.2H2O (2.5 mM), dissolved consecutively in deionized water at 37° C. and buffered at pH ˜7.4 using 50 mM Trizma™ base and an appropriate volume of 1M HCl. Coated surfaces were incubated in Ca—P solution at 37° C. for 24 h.
However it contradicts the β-cpSer adsorption isotherm result. This phenomenon can be explained by the different surface topography and surface area between TiO2 particles and TiO2 surface, adsorption surface area at adsorption isotherm experiment is 1.123 m^2 and the surface area is 10^−4 m^2. At small surface areas, the difference between peptides' adsorption cannot be observed. In order to examine the influence of the Glu tail on calcified mineralization process, titanium oxide surfaces were coated with pSer peptide or with the control peptides (cpSer or β-cpSer) and incubated for 24 hours inside calcium-phosphate solution (see Materials and Methods). Atomic concentrations of calcium and phosphorus were compared with titanium as measured by XPS.

[3] = Adsorption isotherm onto TiO2 particles, Sips equation fitting; type: binding; conditions: 10 mM TBS pH 7.4, 1 h room temperature; Sips fit
Protocol: The adsorption of all three peptides to TiO2 particles were measured with peptides solution in a range of concentrations from 0.002 to 0.524 mM in 10 mM TBS solution. TiO2 particles were suspended in TBS 10 mM, pH 7.4, to a final concentration of 1.8 mg/ml. To each test tube containing 0.5 ml of peptide at different concentrations, 0.5 ml of TiO2 particles solution was added. The samples were continuously mixed with a tube rotator for 1 h at room temperature. To precipitate the TiO2 particles, the test tubes were centrifuged at 5000 rpm for 3 minutes and the absorption of the supernatant was measured at 280 nm using a microplate-reader (BioTek instruments). Peptide concentration was determined based on calibration curve of each peptide prepared in TBS solution. In order to describe the adsorption of molecules on TiO2 particles surface the sips equation, also known as the Langmuir-Freundlich equation (1), was used:
[formula] where S is the amount of adsorbed molecules (mol m^−2), Smax is the maximum amount of molecules adsorbed (mol m^−2), C is their concentration is solution at equilibrium (mM), k is the association coefficient (M^−1) and α is the constant representing this distribution.^30
Peptide adsorption and desorption conditions were characterized by HPLC. A column was packed with micrometer size particles of the TiO2 anatase phase (see Materials and Methods). […]

[4] = HPLC chromatography on TiO2 anatase microparticle column (Example 2); type: binding; conditions: 0.4 mg/ml in TBS (10 mM, pH=7.4) loading buffer
Protocol: A stainless steel (4.6×50 mm) column was packed with TiO2 anatase (Sachtopore NP 10μ/100 Å, particle size/pore size respectively) suspended in methanol. The packed column was washed consecutively with water and 0.1 M NaOH to desorb surface contaminants. The column was then pre-equilibrated with the loading/running buffer. The chromatographic process was performed on a HPLC system (Algient Technologies, 1260 Infinity, Germany). Peptides dissolved in the loading/running buffer (0.4 mg/ml) were sonicated for 10 minutes and centrifuged at […] for 8 minutes and were injected to the TiO2 column at a flow rate of 0.02 ml/min to attain ˜40 minutes retention time for adsorption. 10 mM tris buffered saline pH 7.4 (TBS) was used as adsorption/running media. After 65 minutes, the flow rate was increased to 0.5 ml/min. Elution was carried out by gradients of 200 mM sodium bicarbonate solution pH 7.4 and 0.1 M NaOH. Elution was monitored at 280 nm. All solutions were filtered using 0.2 μm filters (Millipore, Badford, Mass.).
Peptide adsorption and desorption conditions were characterized by HPLC. A column was packed with micrometer size particles of the TiO2 anatase phase (see Materials and Methods). Tris buffer saline (TBS), pH 7.4, served as a loading buffer. […]

[5] = Chromatography of PpSer on TiO2 anatase column (bicarbonate and NaOH elution gradients); type: binding
Source text: Chromatography on TiO2 Surfaces: as described in Golan Gertler, Gideon Fleminger and Hanna Rapaport. Langmuir 2010, 26(9), 6457-6463, and further illustrated in FIG. 3. Stainless steel (4.6_50 mm) column was packed with TiO2 anatase (Sachtopore NP 10μ/100 A°, particle size/pore size respectively) suspended in methanol. The packed columns were washed consecutively with water and 0.1 M NaOH to desorb surface contaminants. The columns were then pre-equilibrated with the running buffer. Lyophilized peptides were dissolved in the running buffer (0.2 mg/mL) and centrifuged at 5000 g for 5 min prior to injection into the column to remove possible aggregates. The supernatants (100 μL) were injected on to the TiO2 column at a flow rate of 0.02 mL/min to attain 40 min retention time for adsorption. After 65 minutes, the flow rate was increased to 0.5 mL/min. Ten millimolar Tris and phosphate buffer solutions, pH 7.4, were used as adsorption (running) media. In addition, these buffers complemented by 150 mM NaCl (TBS, PBS, respectively) were also examined. Elution was carried out by gradients of the following solutions applied consecutively to the column: 1 M NaCl, 80% acetonitrile, 200 mM sodium phosphate, and 0.1 M NaOH, monitored at 215-280 nm. The chromatograms were obtained at room temperature using 0.2 μm filtered (Millipore, Badford, Mass.) solutions.
The peptide dissolved in two different running buffer, Tris buffer saline (TBS) and sodium bicarbonate saline (BCS). The affinity of functional groups to TiO2 from previous works was known to be PO4^−3>HCO3^−>COO^−. (The diagonal line in the chromatography is the elution gradient: 0-200 mM sodium bicarbonate & 0-0.1M NaOH).
Peptides that bind to TiO2 only through Glutamic acid functional groups will elute in BC gradient, however peptides that bind to TiO2 through pSer functional groups will elute in the NaOH gradient.
The idea behind using BCS as running buffer is to block the surface with carbonate ions before the peptide injection.

[6] = BCS (sodium bicarbonate saline) running buffer, FIG. 7B

Compound: O=P([O-])([O-])Oc1ccccc1.[Na+].[Na+] [sodium phenyl phosphate dibasic]
Difference in concentration of the solution between the initial and the final one ([1]; 0.0625 mg/ml in adsorbing solution): 0.02365
Difference in concentration of the solution between the initial and the final one ([1]; 0.125 mg/ml in adsorbing solution): 0.02083
Difference in concentration of the solution between the initial and the final one ([1]; 0.25 mg/ml in adsorbing solution): 0.008776
Difference in concentration of the solution between the initial and the final one ([1]; 0.5 mg/ml in adsorbing solution): ~0
Difference in concentration of the solution between the initial and the final one ([1]; 1 mg/ml in adsorbing solution): ~0
concentrations at which the compound adsorbs to TiO2 microparticles [1]: lower than 0.25 mg/ml

Compound: Pro-Ser(phos)-Phe-Ser(phos)-Trp-(Gly)3-(Glu)5 (P[pS]F[pS]WGGGEEEEE) [pSer]
calcium and phosphate adsorbed by coated surfaces (atomic ratio of P and Ca to Ti) [2]: significantly higher calcium and phosphate concentration; also recorded: adsorbs more Ca and P ions

Compound: Pro-Ser(phos)-Ser(phos)-Phe-Trp-(Gly)3 (P[pS][pS]FWGGG) [β-cpSer]
Smax, maximum amount of molecules adsorbed to TiO2 surface [3]: 7.48E−7 mol · m^−2
calcium and phosphate adsorbed by coated surfaces (atomic ratio of P and Ca to Ti) [2]: approximately the same calcium and phosphate concentrations

adsorption to the oxide [4]: does not adsorb
Compound: Trp-Glu

Compound: Pro-pSer-Phe-pSer-Trp-(Gly)3 (P[pS]F[pS]WGGG) [cpSer, control peptide lacking the stretch of the Glu residues]
calcium and phosphate adsorbed by coated surfaces (atomic ratio of P and Ca to Ti) [2]: approximately the same calcium and phosphate concentrations

fraction of the peptide able to displace the carbonate ions and bind TiO2 through pSer [5, 6]: ⅔ and two-thirds
fraction of the peptide that can't displace the carbonate ions, bonded to them, eluted at BC gradient [5, 6]: ⅓ and about one third
Compound: O=C(O)CC[C@H](NC(=O)[C@H](CCC(=O)O)NC(=O)[C@H](CCC(=O)O)NC(=O)[C@H](CCC(=O)O)NC(=O)[C@H](CCC(=O)O)NC(=O)CNC(=O)CNC(=O)CNC(=O)[C@H](Cc1c[nH]c2ccccc12)NC(=O)[C@H](COP(=O)(O)O)NC(=O)[C@H](Cc1c[nH]c2ccccc12)NC(=O)[C@H](COP(=O)(O)O)NC(=O)[C@@H]1CCCN1)C(=O)O [PpSer, Pro-pSer-Trp-pSer-Trp-(Gly)3-(Glu)5] (H-P[pS]W[pS]WGGGEEEEE-OH; N-terminus and C-terminus assumed)
mode of binding to TiO2 on the column ([5]; TBS running buffer, 10 mM pH 7.4, FIG. 7A): bonded to TiO2 through pSer functional groups
